Assay results from patent publication US9409845B2, “Alpha-(3,5-dimethoxybenzylidene)-alpha′-hydrocarbyl methylene cyclic ketone and preparation method thereof” (PHARMAXYN LABORATORIES LTD., priority 2012, dated 2016).
Where two headings read alike, the source gives them in different places.

Key:
EGFR = EGFR (Homo sapiens (Human), UniProt P00533); assay: EGFR kinase autophosphorylation, time-resolved fluorescence; format: biochemical; conditions: Table 1
Procedure: Determination of the inhibitory effect of the compound on EGFR: the kinase activity of EGFR was detected according to time-resolved fluorescence detection technology to evaluate automatic phosphorylation levels. The test compound was dissolved in 100% DMSO, diluted with 25 mM HEPES (pH=7.4) to the desired concentration, added into each well with 10 μL of the test compounds and 10 μL solution containing 5 ng EGFR, then cultured for 10 min at room temperature using the recombinase diluted by 100 mM HEPES with a dilution ratio of 1:80, subsequently added with 10 μL solution containing 20 mM HEPES, 2 mM MnCl2, 100 μM Na3VO4, 1 mM DTT buffer, and 20 μL of 0.1 mM ATP and 50 mM MgCl2 and cultured for 1 h. The positive group in each plate was added with ATP-MgCl2 enzyme, the negative control group without adding with ATP-MgCl2 enzyme, the liquid was sucked out completely after cultured for 1 h, and each well was washed with buffer for three times. The wells were added with 75 μL anti-phosphorylated tyrosine antibody containing 400 ng europium labeling and cultured 1 h, washed, then added with enhancing solution.

[1] = test system: human hepatoma HepG2 tumor cell lines; assay: MTT antiproliferation assay, HepG2; format: cell-based; conditions: for IC50: MTT, 48 h
Procedure: (§1) The effects on tumor cell proliferation: the antiproliferative activities of α-(3,5-dimethoxy-benzylidene)-α′-hydrocarbonyl methylene cyclic ketone on human hepatoma HepG2 tumor cell lines and human cutaneous melanoma A16-F10 cell lines were evaluated using methyl thiazolyl tetrazolium (MTT) assay.
(§2) Experimental procedures are performed as follows: tumor cells in DMEM culture medium containing 10% fetal bovine serum, 100 U·mL^−1 penicillin and 100 U·mL^−1 streptomycin were cultured in an incubator under 5% CO2 and saturated humidity at 37. Test compounds were dissolved in dimethyl sulfoxide and then diluted with DMEM culture medium to the corresponding concentration, wherein the final concentration of dimethyl sulfoxide was less than 0.01%.
(§3) Negative control group, the blank control group and experimental groups were separately set up, each group with three double-wells. The negative control group was only added with cells but without the drug, the blank control group wad only added with dimethyl sulfoxide solution. The experimental group was added at each well with 11 μL solution containing different concentrations of the sample to be tested, such that the final concentration of the drug were […]. The cells were cultured for additional 48 h in a incubator with 5% CO2 at 37, subsequently the culture solution was gently sucked out and each well was added with 200 μL 0.5 mg/mL of MTT solution. The cells were cultured for another 6 h, then the MTT culture solution was sucked out and each well was added with 150 μL dimethyl sulfoxide, followed by oscillation dissolved for 10 min. The absorbance OD values in each well were measured at the measurement wavelength 570 nm and the reference wavelength 630 nm using a microplate reader.

[2] = test system: human cutaneous melanoma A16-F10 cell lines; assay: MTT antiproliferation assay, A16-F10; format: cell-based
Procedure: as §1, §2, §3

[3] = Table 1, read-out: anti-proliferation IC50 Hep G2
[4] = Table 1, MTT, 48 h, read-out: anti-proliferation IC50 A16-F10
[5] = Homo sapiens, A16-F10, Table 1, MTT, 48 h, read-out: anti-proliferation IC50 A16-F10
[6] = Homo sapiens, HepG2, Table 1, read-out: anti-proliferation IC50 Hep G2
[7] = Homo sapiens, HepG2, Table 2, read-out: Anti-proliferative effect on HepG2 tumor cells IC50

Chain of EGFR (P00533 25-1210, species assumed): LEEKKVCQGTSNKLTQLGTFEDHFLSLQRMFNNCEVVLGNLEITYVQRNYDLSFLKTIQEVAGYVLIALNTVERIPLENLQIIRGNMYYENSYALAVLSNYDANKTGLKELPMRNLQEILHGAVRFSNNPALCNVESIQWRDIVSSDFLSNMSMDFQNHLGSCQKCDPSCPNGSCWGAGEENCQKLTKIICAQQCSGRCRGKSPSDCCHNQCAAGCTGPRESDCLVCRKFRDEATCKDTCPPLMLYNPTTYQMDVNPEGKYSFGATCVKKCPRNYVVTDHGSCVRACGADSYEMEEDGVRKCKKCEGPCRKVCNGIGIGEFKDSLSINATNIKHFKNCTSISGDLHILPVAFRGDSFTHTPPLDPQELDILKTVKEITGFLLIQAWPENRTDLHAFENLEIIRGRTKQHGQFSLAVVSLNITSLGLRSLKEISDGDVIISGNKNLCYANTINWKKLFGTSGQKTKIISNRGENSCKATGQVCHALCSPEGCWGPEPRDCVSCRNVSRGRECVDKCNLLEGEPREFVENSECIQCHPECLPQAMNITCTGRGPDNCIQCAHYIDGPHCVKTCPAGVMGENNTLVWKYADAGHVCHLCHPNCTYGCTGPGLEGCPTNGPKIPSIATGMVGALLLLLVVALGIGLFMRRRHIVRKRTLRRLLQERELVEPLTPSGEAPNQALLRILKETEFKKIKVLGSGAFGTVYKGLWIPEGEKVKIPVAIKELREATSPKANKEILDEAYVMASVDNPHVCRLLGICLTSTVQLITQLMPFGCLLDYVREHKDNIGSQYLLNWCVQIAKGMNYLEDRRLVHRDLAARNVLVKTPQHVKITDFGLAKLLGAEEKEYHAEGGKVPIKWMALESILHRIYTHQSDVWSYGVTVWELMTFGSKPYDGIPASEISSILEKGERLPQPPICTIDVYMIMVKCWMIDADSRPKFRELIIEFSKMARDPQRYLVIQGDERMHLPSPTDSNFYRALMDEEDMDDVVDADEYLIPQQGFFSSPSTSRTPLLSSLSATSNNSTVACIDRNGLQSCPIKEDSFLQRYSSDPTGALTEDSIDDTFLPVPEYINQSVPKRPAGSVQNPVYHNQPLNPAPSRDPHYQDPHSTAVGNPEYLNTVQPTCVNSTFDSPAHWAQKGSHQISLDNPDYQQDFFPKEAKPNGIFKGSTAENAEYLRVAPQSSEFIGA

## COc1cc(/C=C2\CCC/C(=C\c3ccc(Br)cc3)C2=O)cc(OC)c1 [(2E,6E)-2-(3,5-dimethoxybenzyl-idene)-6-(4-bromophenyl-methylene)cyclohexanone]
EGFR
  IC50: 7.12 µM

## COc1cc(/C=C2\CCC/C(=C\c3ccc(OC)c(O)c3)C2=O)cc(OC)c1 [(2E,6E)-2-(3,5-dimethoxy-benzylidene)-6-(3-hydroxy-4-methoxybenzylidene)cyclohexanone]
EGFR
  IC50: 5.37 µM
other
  melting point: 131.2 to 131.6 °C

## COc1cc(/C=C2\CCC/C(=C\c3ccccc3Br)C2=O)cc(OC)c1 [(2E,6E)-2-(3,5-dimethoxybenzyl-idene)-6-(2-bromobenzylidene)cyclohexanone]
[1]; [3]
  IC50: 32.2 µM
[2]; [4]
  IC50: 12.4 µM
EGFR
  IC50: 8.08 µM

## COc1cc(/C=C2\CCC/C(=C\c3ccc(O)cc3)C2=O)cc(OC)c1 [(2E,6E)-2-(3,5-dimethoxybenzylidene)-6-(4-hydroxybenzylidene)cyclohexanone]
EGFR
  IC50: 4.66 µM

## COc1cc(/C=C2\CCC/C(=C\c3cccc(Cl)c3)C2=O)cc(OC)c1 [(2E,6E)-2-(3,5-dimethoxybenzyl-idene)-6-(3-chlorobenzylidene)cyclohexanone]
EGFR
  IC50: 2.27 µM

## C#Cc1cccc(Nc2ncnc3cc(OCCOC)c(OCCOC)cc23)c1 [erlotinib, reference compound]
[2]; [5]
  IC50: 0.2 µM

## COc1cc(/C=C2\CCC/C(=C\c3ccc(N(C)C)cc3)C2=O)cc(OC)c1 [(2E,6E)-2-(3,5-dimethoxybenzyl-idene)-6-(4-dimethylaminobenzylidene)cyclohexanone]
[1]; [3]
  IC50: 11.8 µM
[2]; [4]
  IC50: 5.84 µM
EGFR
  IC50: 3.98 µM

## COc1cc(/C=C2\CCC/C(=C\C3CCCCC3)C2=O)cc(OC)c1 [(2E,6E)-2-(3,5-dimethoxybenzyl-idene)-6-(cyclohexylmethylene)cyclohexanone]
[1]; [3]
  IC50: 17.2 µM
[2]; [4]
  IC50: 12.2 µM
EGFR
  IC50: 7.52 µM

## COc1cc(/C=C/C(=O)CC(=O)/C=C/c2ccc(O)c(OC)c2)ccc1O [curcumin, reference compound]
[2]; [5]
  IC50: 18.7 µM

## COc1cc(/C=C2\CCC/C(=C\c3cccc(Br)c3)C2=O)cc(OC)c1 [(2E,6E)-2-(3,5-dimethoxybenzylidene)-6-(3-bromobenzylidene)cyclohexanone]
EGFR
  IC50: 6.85 µM

## COc1cc(/C=C2\CCC/C(=C\c3ccc(O)c(O)c3)C2=O)cc(OC)c1 [(2E,6E)-2-(3,5-dimethoxybenzylidene)-6-(3,4-dihydroxybenzylidene)cyclohexanone]
[1]; [6]
  IC50: 1.01 µM
[2]; [5]
  IC50: 0.71 µM
[2]; Homo sapiens, A16-F10, cell line not given, read-out: anti-tumor activity IC50
  IC50: < 1 µM
EGFR
  IC50: 0.43 µM

## COc1cc(/C=C2\CCC/C(=C\c3ccccc3OC)C2=O)cc(OC)c1 [(2E,6E)-2-(3,5-dimethoxybenzyl-idene)-6-(2-methoxybenzylidene)cyclohexanone]
[1]; [3]
  IC50: > 200 µM
[2]; [4]
  IC50: > 200 µM

## COc1cc(/C=C2\CCC/C(=C\c3ccccc3)C2=O)cc(OC)c1 [(2E,6E)-2-(3,5-dimethoxy-benzylidene)-6-benzylidene cyclohexanone]
EGFR
  IC50: 1.68 µM

## COc1cc(/C=C2\CC/C(=C\c3ccc(F)cc3)C2=O)cc(OC)c1 [(2E,5E)-2-(3,5-dimethoxybenzylidene)-5-(4-fluorobenzylidene)cyclopentanone]
[1]; [7]
  IC50: 79.9 µM

## COc1cc(/C=C2\CCC/C(=C\c3ccc(F)cc3)C2=O)cc(OC)c1 [(2E,6E)-2-(3,5-dimethoxybenzyl-idene)-6-(4-fluorobenzylidene)cyclohexanone]
[1]; [3]
  IC50: 12.1 µM
[2]; [4]
  IC50: 7.63 µM
EGFR
  IC50: 5.69 µM

## COc1cc(/C=C2\CCC/C(=C\c3ccccc3F)C2=O)cc(OC)c1 [(2E,6E)-2-(3,5-dimethoxybenzylidene)-6-(2-fluorobenzylidene)cyclohexanone]
[1]; [6]
  IC50: 7.53 µM
[2]; [5]
  IC50: 5.64 µM
EGFR
  IC50: 2.17 µM

## COc1cc(/C=C2\CCC/C(=C\c3cc(C(C)(C)C)c(O)c(C(C)(C)C)c3)C2=O)cc(OC)c1 [(2E,6E)-2-(3,5-dimethoxybenzylidene)-6-(3,5-di-t-butyl-4-hydroxybenzylidene)cyclohexanone]
EGFR
  IC50: 4.81 µM

## COc1cc(/C=C2\CCC/C(=C\c3ccccc3Cl)C2=O)cc(OC)c1 [(2E,6E)-2-(3,5-dimethoxybenzyl-idene)-6-(2-chlorobenzylidene)cyclohexanone]
EGFR
  IC50: 1.54 µM

## COc1cc(/C=C2\CCC/C(=C\c3ccc(S(C)(=O)=O)cc3)C2=O)cc(OC)c1 [(2E,6E)-2-(3,5-dimethoxybenzyl-idene)-6-(4-methylsulphonylbenzylidene)cyclohexanone]
EGFR
  IC50: 1.96 µM

## COc1ccc(/C=C2\CCC/C(=C\c3cc(OC)cc(OC)c3)C2=O)cc1 [(2E,6E)-2-(3,5-dimeth-oxybenzylidene)-6-(4-methoxybenzylidene)cyclohexanone]
EGFR
  IC50: 18.7 µM

## COc1cc(/C=C2\CCC/C(=C\c3ccc(Cl)cc3)C2=O)cc(OC)c1 [(2E,6E)-2-(3,5-dimethoxybenzyl-idene)-6-(4-chlorobenzylidene)cyclohexanone]
[1]; [3]
  IC50: 25.5 µM
[2]; [4]
  IC50: 18.4 µM
EGFR
  IC50: 15.3 µM

## COc1cc(/C=C2\CC/C(=C\c3ccccc3)C2=O)cc(OC)c1 [(2E,5E)-2-(3,5-dimethoxybenzylidene)-5-benzylidenecyclopentanone]
[1]; [7]
  IC50: 11.3 µM
[1]; comparison
  anti-proliferative effect on HepG2 tumor cell lines (in words): significantly stronger than curcumin

## COc1cccc(/C=C2\CCC/C(=C\c3cc(OC)cc(OC)c3)C2=O)c1 [(2E,6E)-2-(3,5-dimethoxybenzyl-idene)-6-(3-methoxybenzylidene)cyclohexanone]
EGFR
  IC50: 6.13 µM

## COc1cc(/C=C2\CCC/C(=C\c3cc(OC)cc(OC)c3)C2=O)cc(OC)c1 [(2E,6E)-2,6-bis (3,5-dimethoxybenzylidene)cyclohexanone]
[1]; [6]
  IC50: 8.56 µM
[2]; [5]
  IC50: 4.71 µM
EGFR
  IC50: 2.08 µM
